{"source": "patent US20250171404A1", "about": "“PCNA INHIBITORS AND USES THEREOF” (CITY OF HOPE, priority 2022, published 2025)", "key": {"γH2A.X": {"tested_on": "γH2A.X", "experiment": "γH2A.X Western blot (DNA damage marker)", "format": "cell-based, human"}, "[1]": {"tested_on": "DNA replication fork extension, SK-N-BE(2)-C or MDA-MB-231 cells", "experiment": "DNA combing analysis (replication fork extension)", "format": "cell-based", "conditions": "synchronized cells, 20 minutes", "protocol": "FIGS. 7A-7E. Transcription dependent effect on DNA replication and damage. FIG. 7A: Left: Schematic of the cell fractionation procedure. Right: MDA-MB-468 cells were treated by increasing concentrations of AOH1996 (5, 50, or 500 nM) for 24 h. Cells treated with DMSO were used as control. Whole cell extract (WCE) and protein fractions associated with actively transcribed chromatin (CB:RNA+) or with low or non-transcribed chromatin (CB:RNA−) were analyzed by Western blot using antibodies against PCNA, CAF-1, and MCM7. FIG. 7B: Synchronized cancer cells were sequentially incubated in the presence of CldU (light grey) and IdU (dark grey) before and after AOH1996 treatment, respectively. […] Middle and Right: Lengths of CldU (light grey) and IdU (dark grey) incorporated DNA segments measured for more than 30 independent DNA strands from the indicated cancer cell type were averaged and graphed ±S.D. FIG. 7C: Whole cell lysates were extracted from SK-N-AS cells homozygous of the wildtype RPB1 allele or the APIM-mutant allele. Histone H2A.X and γH2A.X was analyzed by Western blot after treatment with or without AOH1996 overnight. FIG. 7D: Histone H2A.X and γH2A.X in whole cell lysates from SK-N-AS cells were analyzed by Western blot after treatment with 500 nM AOH1996 and/or 50 μM DRB overnight. […]"}, "PCNA": {"biological_target": "T1, PCNA (Homo sapiens, UniProt P12004)", "T1 construct": "made in house; host or cells: E. coli Rosetta 2 (DE3)", "T1 sequence (P12004 whole entry)": "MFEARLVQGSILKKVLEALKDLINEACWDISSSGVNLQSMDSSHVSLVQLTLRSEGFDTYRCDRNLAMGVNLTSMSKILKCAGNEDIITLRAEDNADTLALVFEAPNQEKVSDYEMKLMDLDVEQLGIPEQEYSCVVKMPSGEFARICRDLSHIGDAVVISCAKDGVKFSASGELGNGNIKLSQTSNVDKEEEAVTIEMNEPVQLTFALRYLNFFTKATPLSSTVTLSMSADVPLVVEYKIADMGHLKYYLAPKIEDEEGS", "experiment": "Thermal denaturation (thermal shift) assay", "format": "binding", "conditions": "9 μM PCNA; 10 or 30 μM compound; dose dependent", "protocol": "FIGS. 1A-1E. AOH1160 analog interactions with PCNA. FIG. 1A: Thermal shift assay: Normalized inverse derivative thermal denaturation plots of 9 μM apo-PCNA with DMSO control is depicted with a black dashed line and PCNA in the presence of 10 μM AOH1160LE is shown in light grey and 30 μM AOH1160LE in dark grey. ΔTm values are provided. FIG. 1B: As described in FIG. 1A, in the presence of 10 μM AOH1996 depicted in light grey and 30 μM AOH1996 depicted in dark grey. FIG. 1C: Four monomers (chains A-D) of PCNA are present in the asymmetric unit of the crystal. Chains A, B, and C form the homotrimer biological unit, while chain Dis orientated perpendicular to the plane of the ring, below the interface of chains B and C and it belongs to an adjacent ring. Inset: Three molecules of AOH1160LE bind in and adjacent to the PIP box cavity of each of the PCNA ring subunits. The omit map, gray mesh, is contoured to 1.56. Two PCNA monomer subunits from adjacent rings stack against each other, placing the PIP box and IDCLs of each subunit in opposing directions. FIG. 1D: The three AOH1160LE molecules are shown as stick figure representations. Two of the compounds, left and central, bind into the PIP box cavity at known PCNA-partner/compound interaction sites. […] The electrostatic surface maps are depicted with Poisson-Boltzmann electrostatic surface potentials shown in dark grey and light grey, corresponding to −10 to +10 kT/e respectively.\nTargeting the PIP box and APIM binding domain of PCNA. AOH1160, a small molecule PCNA ligand, targets the cancer-distinct L126-Y133 region of PCNA (Malkas et al., 2006) and is selectively toxic to cancer cells (Gu et al., 2018). […]\nThermal denaturation assay for PCNA-AOH1996 interaction. […] Fluorescence intensity was measured within the excitation/emission ranges 470-505/540-700 nm."}}}
{"smiles": "COc1cccc(Oc2ccccc2NC(=O)CNC(=O)c2cccc3ccccc23)c1", "note": "[AOH1996, N-(2-((2-(3-methoxyphenoxy)phenyl)amino)-2-oxoethyl)-1-naphthamide]", "values": [{"measurement": "γH2A.X levels, cancer vs non-malignant cells", "setting": "γH2A.X; 500 nM, SK-N-BE(2)c", "result": "caused accumulation of DNA damages as measured by γH2A.X levels in the SK-N-BE(2)c cancer cells, but not in non-malignant cells"}, {"measurement": "γH2A.X levels, wildtype RPB1 vs Y418A mutant cells", "setting": "γH2A.X; SK-N-AS, overnight", "result": "caused substantially more DNA damages as measured by γH2A.X levels in cells containing wildtype RPB1 allele than in cells homozygous of the Y418A mutant allele"}, {"measurement": "length of IdU-incorporated DNA strands", "setting": "[1]", "result": "IdU-incorporated DNA strands became significantly shorter in cells treated by AOH1996 than untreated control cells"}, {"measurement": "shift of protein melting curves (ΔTm)", "setting": "PCNA", "result": "≤ 1.5", "unit": "°C"}]}
